Measured values as given in ChEMBL document CHEMBL5370549, “Optimization and evaluation of pyridinyl vinyl sulfones as Nrf2 activator for the antioxidant and anti-inflammatory effects” (Eur J Med Chem, 2023).
Calls of active or inactive are those of the source. No cut-off for these calls is given here.

Tests used:
CYP3A4 = CYP3A4 (Homo sapiens, UniProt P08684); experiment: Inhibition of CYP3A4 (unknown origin) assessed as enzyme activity at 10 uM relative to control; format: ADME; design: scale not given: the % may be the effect or the level left; conditions: read-out: Activity
Chain of CYP3A4 (P08684 whole entry): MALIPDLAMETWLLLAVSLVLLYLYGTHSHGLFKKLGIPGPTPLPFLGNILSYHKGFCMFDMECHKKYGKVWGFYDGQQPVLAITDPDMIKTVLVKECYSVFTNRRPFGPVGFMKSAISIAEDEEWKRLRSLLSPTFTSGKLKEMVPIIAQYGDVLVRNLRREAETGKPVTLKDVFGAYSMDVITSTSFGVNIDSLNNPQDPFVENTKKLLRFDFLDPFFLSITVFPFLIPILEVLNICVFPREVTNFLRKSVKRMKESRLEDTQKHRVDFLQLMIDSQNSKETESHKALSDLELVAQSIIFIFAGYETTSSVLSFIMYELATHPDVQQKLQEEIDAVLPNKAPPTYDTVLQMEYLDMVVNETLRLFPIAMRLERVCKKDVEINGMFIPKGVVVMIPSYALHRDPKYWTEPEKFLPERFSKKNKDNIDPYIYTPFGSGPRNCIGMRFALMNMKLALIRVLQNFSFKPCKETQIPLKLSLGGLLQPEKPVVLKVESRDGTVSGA

CYP2C9 = CYP2C9 (Homo sapiens, UniProt P11712); experiment: Inhibition of CYP2C9 (unknown origin) assessed as enzyme activity at 10 uM relative to control; format: ADME; design: scale not given: the % may be the effect or the level left; conditions: read-out: Activity
Chain of CYP2C9 (P11712 whole entry): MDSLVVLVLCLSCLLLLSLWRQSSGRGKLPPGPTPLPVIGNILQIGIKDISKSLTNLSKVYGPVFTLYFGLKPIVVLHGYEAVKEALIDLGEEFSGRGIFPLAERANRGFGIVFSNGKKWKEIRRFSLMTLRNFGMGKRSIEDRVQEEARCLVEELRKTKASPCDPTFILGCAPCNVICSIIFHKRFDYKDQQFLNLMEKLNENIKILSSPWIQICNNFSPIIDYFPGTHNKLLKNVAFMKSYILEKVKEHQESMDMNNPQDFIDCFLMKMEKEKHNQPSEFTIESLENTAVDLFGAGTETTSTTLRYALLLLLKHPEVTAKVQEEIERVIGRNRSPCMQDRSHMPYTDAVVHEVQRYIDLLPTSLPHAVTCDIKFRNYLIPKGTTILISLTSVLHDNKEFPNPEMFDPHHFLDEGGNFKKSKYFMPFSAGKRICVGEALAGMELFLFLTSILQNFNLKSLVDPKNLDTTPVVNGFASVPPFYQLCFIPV

CYP2C19 = CYP2C19 (Homo sapiens, UniProt P33261); experiment: Inhibition of CYP2C19 (unknown origin) assessed as enzyme activity at 10 uM relative to control; format: ADME; design: scale not given: the % may be the effect or the level left; conditions: read-out: Activity
Chain of CYP2C19 (P33261 whole entry): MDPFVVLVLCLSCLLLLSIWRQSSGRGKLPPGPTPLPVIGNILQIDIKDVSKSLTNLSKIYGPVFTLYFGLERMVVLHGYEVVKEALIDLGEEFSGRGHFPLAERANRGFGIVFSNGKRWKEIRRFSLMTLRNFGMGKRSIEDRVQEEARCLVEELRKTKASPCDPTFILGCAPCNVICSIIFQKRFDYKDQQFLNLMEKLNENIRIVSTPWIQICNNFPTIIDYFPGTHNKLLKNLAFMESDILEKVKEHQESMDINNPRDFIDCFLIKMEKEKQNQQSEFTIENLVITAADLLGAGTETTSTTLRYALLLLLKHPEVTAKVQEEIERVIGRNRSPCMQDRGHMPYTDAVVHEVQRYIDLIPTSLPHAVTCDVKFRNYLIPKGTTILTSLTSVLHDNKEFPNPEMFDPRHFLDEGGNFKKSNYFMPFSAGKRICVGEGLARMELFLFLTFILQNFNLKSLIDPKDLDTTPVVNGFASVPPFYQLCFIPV

CYP2D6 = CYP2D6 (Homo sapiens, UniProt P10635); experiment: Inhibition of CYP2D6 (unknown origin) assessed as enzyme activity at 10 uM relative to control; format: ADME; design: scale not given: the % may be the effect or the level left; conditions: read-out: Activity
Chain of CYP2D6 (P10635 whole entry): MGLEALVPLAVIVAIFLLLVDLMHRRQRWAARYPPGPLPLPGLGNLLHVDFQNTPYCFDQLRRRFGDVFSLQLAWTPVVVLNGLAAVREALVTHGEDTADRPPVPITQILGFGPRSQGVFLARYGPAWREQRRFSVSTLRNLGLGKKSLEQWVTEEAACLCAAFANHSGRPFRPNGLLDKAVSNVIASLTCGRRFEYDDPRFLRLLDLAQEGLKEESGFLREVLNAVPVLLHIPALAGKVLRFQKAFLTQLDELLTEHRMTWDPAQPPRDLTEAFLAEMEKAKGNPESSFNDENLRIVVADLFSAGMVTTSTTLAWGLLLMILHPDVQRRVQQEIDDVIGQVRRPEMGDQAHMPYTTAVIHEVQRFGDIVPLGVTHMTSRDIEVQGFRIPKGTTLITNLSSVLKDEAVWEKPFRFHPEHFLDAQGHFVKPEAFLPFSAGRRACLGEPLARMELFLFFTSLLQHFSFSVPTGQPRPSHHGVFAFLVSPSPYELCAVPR

[1] = Metabolic stability of the compound in mouse liver microsomes assessed as parent compound remaining measured after 30 mins; format: ADME, Microsome; conditions: read-out: Stability
[2] = Metabolic stability of the compound in human plasma assessed as parent compound remaining measured after 30 mins; format: ADME, cell-free; conditions: read-out: Stability
[3] = Metabolic stability of the compound in rat plasma assessed as parent compound remaining measured after 30 mins; format: ADME, cell-free; conditions: read-out: Stability
[4] = biological target: T1, Nuclear factor erythroid 2-related factor 2 (Mus musculus) (UniProt Q60795); experiment: Activation of Nrf2 in mouse BV-2 cells assessed as increase in Nrf2 level in whole cell lysates at 3 uM measured after 48 hrs by immunoblot analysis; format: subcellular
T1 sequence (whole entry): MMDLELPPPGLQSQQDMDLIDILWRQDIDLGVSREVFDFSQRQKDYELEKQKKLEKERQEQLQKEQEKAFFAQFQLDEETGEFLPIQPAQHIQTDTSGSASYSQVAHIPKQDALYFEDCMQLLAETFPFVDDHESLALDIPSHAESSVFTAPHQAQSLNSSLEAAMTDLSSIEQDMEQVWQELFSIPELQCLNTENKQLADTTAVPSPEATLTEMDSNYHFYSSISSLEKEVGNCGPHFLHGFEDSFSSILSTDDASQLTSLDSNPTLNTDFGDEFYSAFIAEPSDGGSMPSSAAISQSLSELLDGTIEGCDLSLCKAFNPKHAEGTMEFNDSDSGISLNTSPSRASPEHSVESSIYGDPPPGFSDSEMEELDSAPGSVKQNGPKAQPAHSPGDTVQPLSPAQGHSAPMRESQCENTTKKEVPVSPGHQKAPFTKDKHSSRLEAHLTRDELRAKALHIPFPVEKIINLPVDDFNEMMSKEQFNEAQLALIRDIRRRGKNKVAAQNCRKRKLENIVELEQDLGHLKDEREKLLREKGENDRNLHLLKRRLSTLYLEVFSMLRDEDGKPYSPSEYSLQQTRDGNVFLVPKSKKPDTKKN

[5] = biological target: T1, Nuclear factor erythroid 2-related factor 2 (Mus musculus); experiment: Activation of Nrf2 in mouse BV-2 cells assessed as increase in Nrf2 level in whole cell lysates at 3 uM measured after 3 hrs by immunoblot analysis; format: subcellular; conditions: filed as activator
[6] = biological target: T1, Nuclear factor erythroid 2-related factor 2 (Mus musculus); experiment: Activation of Nrf2 in mouse BV-2 cells assessed as increase in Nrf2 nuclear translocation at 3 uM measured upto 9 hrs by immunoblot analysis relative to control; format: subcellular; conditions: Nucleus
[7] = biological target: T1, Nuclear factor erythroid 2-related factor 2 (Mus musculus); experiment: Activation of Nrf2 in mouse BV-2 cells assessed as increase in Nrf2 nuclear translocation measured after 3 hrs by immunoblot analysis; format: subcellular; conditions: Nucleus, filed as activator, dose 0.01-3 µM
[8] = biological target: T1, Nuclear factor erythroid 2-related factor 2 (Mus musculus); experiment: Activation of Nrf2 in mouse BV-2 cells assessed as increase in HO-1 mRNA expression incubated for 3 hrs by qRT-PCR analysis; format: cell-based; conditions: filed as activator, dose 0.01-3 µM
[9] = biological target: T1, Nuclear factor erythroid 2-related factor 2 (Mus musculus); experiment: Activation of Nrf2 in mouse BV-2 cells assessed as increase in Gclm mRNA expression incubated for 3 hrs by qRT-PCR analysis; format: cell-based; conditions: filed as activator, dose 0.01-3 µM
[10] = biological target: T1, Nuclear factor erythroid 2-related factor 2 (Mus musculus); experiment: Activation of Nrf2 in mouse BV-2 cells assessed as increase in HO-1 protein expression at 3 uM measured after 24 hrs by immunoblot analysis; format: cell-based; conditions: filed as activator
[11] = biological target: T1, Nuclear factor erythroid 2-related factor 2 (Mus musculus); experiment: Activation of Nrf2 in mouse BV-2 cells assessed as increase in GCLM protein expression at 3 uM measured after 12 hrs by immunoblot analysis; format: cell-based; conditions: filed as activator
[12] = biological target: T1, Nuclear factor erythroid 2-related factor 2 (Mus musculus); experiment: Activation of Nrf2 in mouse BV-2 cells assessed as increase in HO-1 protein expression measured after 9 hrs by immunoblot analysis; format: cell-based; conditions: filed as activator, dose 0.01-3 µM
BV-2 [13] = experiment: Antiinflammatory activity against LPS-induced mouse BV-2 cells assessed as inhibition of NO production at 0.001 to 1 uM pretreated for 6 hrs followed by LPS stimulation for 24 hrs by Griess assay; format: functional, cell-based; conditions: dose 0.001-1 µM, time 30.0 hrs
BV-2 [14] = experiment: Antiinflammatory activity against LPS-induced mouse BV-2 cells assessed as inhibition of NOS2 mRNA expression at 0.1 to 3 uM pretreated for 6 hrs followed by LPS stimulation for 6 hrs by qRT-PCR analysis; format: functional, cell-based; conditions: dose 0.1-3 µM, time 12.0 hrs
BV-2 [15] = experiment: Antiinflammatory activity against LPS-induced mouse BV-2 cells assessed as inhibition of iNOS protein expression pretreated for 6 hrs followed by LPS stimulation for 24 hrs by immunoblot analysis; format: functional, cell-based; conditions: dose 0.001-1 µM, time 30.0 hrs
BV-2 [16] = experiment: Antiinflammatory activity against LPS-induced mouse BV-2 cells assessed as inhibition of IL-1 beta protein expression at 0.001 to 1 uM pretreated for 6 hrs followed by LPS stimulation for 24 hrs by immunoblot analysis; format: functional, cell-based; conditions: dose 0.001-1 µM, time 30.0 hrs
BV-2 [17] = experiment: Antiinflammatory activity against LPS-induced mouse BV-2 cells assessed as inhibition of TNF-alpha production at 0.1 to 3 uM pretreated for 6 hrs followed by LPS stimulation for 24 hrs by ELISA; format: functional, cell-based; conditions: dose 0.1-3 µM, time 30.0 hrs
[18] = Toxicity against C57BL/6N mouse at 1000 mg/kg, po administered as single dose; format: organism-based; conditions: in vivo
Mus musculus [19] = experiment: (§1) Antiinflammatory activity against LPS-induced neuroinflammation C57BL/6N mouse model assessed as reduction of glial cell reactivity by measuring reduction in GFAP expression in hippocampus CA1 region at 20 mg/kg/day, po administered for 3 days followed by LPS administration for 7 days by immunofluorescence staining based analysis; format: functional, organism-based; conditions: time 10.0 day
Mus musculus [20] = experiment: as §1, with “CA3” for “CA1”; format: functional, organism-based; conditions: time 10.0 day
Mus musculus [21] = experiment: as §1, with “IBA1” for “GFAP”, “CA3” for “CA1”; format: functional, organism-based; conditions: time 10.0 day
Mus musculus [22] = experiment: as §1, with “IBA1” for “GFAP”, “dentate gyrus” for “hippocampus CA1 region”; format: functional, organism-based; conditions: time 10.0 day
Mus musculus [23] = experiment: as §1, with “IBA1” for “GFAP”, “cortex” for “hippocampus CA1 region”; format: functional, organism-based; conditions: time 10.0 day
Mus musculus [24] = experiment: Antiinflammatory activity against LPS-induced neuroinflammation C57BL/6N mouse model assessed as inhibition of TNF-alpha production in plasma at 20 mg/kg/day, po administered for 3 days followed by LPS administration for 7 days by ELISA; format: functional, organism-based; conditions: time 10.0 day
Mus musculus [25] = experiment: Antiinflammatory activity against LPS-induced neuroinflammation C57BL/6N mouse model assessed as inhibition of IL-6 production in plasma at 20 mg/kg/day, po administered for 3 days followed by LPS administration for 7 days by ELISA; format: functional, organism-based; conditions: time 10.0 day

COc1cccnc1S(=O)(=O)/C=C/c1ncccc1Cl
activity at 10 µM (CYP3A4): 77.1%
activity at 10 µM (CYP2C9): > 99%
activity at 10 µM (CYP2C19): 74.7%
activity at 10 µM (CYP2D6): > 99%
remaining at 0.5 h [1]: 61%
remaining at 0.5 h [2]: 92.8%
remaining at 0.5 h [3]: 74.4%
Activity [4]: inactive
Activity [5]: Active
fold change (FC) [6]: > 7
Activity [7]: Dose-Dependent Effect
Activity [8]: Dose-Dependent Effect
Activity [9]: Dose-Dependent Effect
Activity [10]: Active
Activity [11]: Active
Activity [12]: Dose-Dependent Effect
Activity (BV-2 [13]): Active
Activity (BV-2 [14]): Active
Activity (BV-2 [15]): Dose-Dependent Effect
Activity (BV-2 [16]): Active
Activity (BV-2 [17]): Active
Activity [18]: Non-Toxic
Activity (Mus musculus [19]): Active
Activity (Mus musculus [20]): Active
Activity (Mus musculus [21]): Active
Activity (Mus musculus [22]): Active
Activity (Mus musculus [23]): Active
Activity (Mus musculus [24]): Active
Activity (Mus musculus [25]): Active
